Experimental data as given in US20240165123A1, “USE OF A COMPOUND CONTAINING A TRICYCLIC HETEROARYL GROUP” (CSPC Zhongqi Pharmaceutical Technology (Shijiazhuang) Co., …, priority 2021, published 2024).
Where two headings read alike, the source gives them in different places.

Tested on: MRL/lpr lupus erythematosus model mice
Format: in vivo
Design: key to Kidney IHC (IgG) pathological score, bilateral kidneys: product score; 0 negative, 1-3 low, 4-8 medium, 9-12 high
Details: prednisone 6 mg/kg QD
Experimental: • female MRL/lpr mice aged 4 weeks, number: 50; • female C57BL/6 mice aged 4 weeks, number: 10.
According to the concentration of the serum anti-ds-DNA antibody, female MRL/lpr mice were randomly divided into five groups: model group: solvent (aqueous solution containing 0.4% Tween 80 and 0.5% methylcellulose) 10 mL/kg BID, positive control group: prednisone 6 mg/kg QD, compound (I) 20, 40 and 60 mg/kg BID groups, the administration volumes respectively: 10 mL/kg. In addition, female C57BL/6 mice served as the normal control group. The animals in the Compound (I) group and the model group were administrated with the medicament or the solvent by gavage twice a day starting from the beginning of five weeks of age with an interval of 8 hours between two administrations; prednisone was administered to the animals by gavage once a day from the beginning of five weeks of age; the administration was totally performed for 17 weeks.
Two mice in the model group died at 15 and 16 weeks of administration, respectively, and 8 mice remained at the end of the test; one mouse in the compound (I) 20 mg/kg bid group died in the later period of the 16th week of administration, and 9 mice remained at the end of the test; and no death of mice occurred in other groups.
The skin destructions on the face, ears and back of mice were observed and scored once a week for 17 times totally.
Scoring system: 1) red swelling and bleeding of the skin; 2) the extent of hair loss and skin dryness; 3) edema; 4) excoriation/corrosion; 5) lichenoid sclerotic plaque and other symptoms. The score of each item was as follows: normal=0 points; slight=1 point; moderate=2 points; severe=3 points. The severity of skin destruction was determined according to the total score of each evaluated symptom. […]
The lymph nodes of MRL/lpr mice were scored once a week for a total of 17 times during the test.
According to the lymph node diameter (cm), the score values were 0-6 points: • 0 point: normal; • 1 point: small (the diameter at one location of points on both sides was less than 1 cm); • 2 points: small (the diameters at two location of points on both sides were less than 1 cm); • 3 points: small (the diameters at three location of points on both sides were less than 1 cm); • 4 points: large (the diameter at one location of points on both sides was larger than 1 cm, the diameters at the other two location of points on both sides were less than 1 cm); • 5 points: large (the diameters at two location of points on both sides were larger than 1 cm, and the diameter at the other location of points on both sides was less than 1 cm); • 6 points: large (the diameters at three location of points on both sides were greater than 1 cm). […]
Kidney HE scoring criteria: […]
During the test, the concentration of serum anti-ds-DNA antibody of mice were detected every 4 weeks for 16 weeks.
At the end of the test, the serum cytokine levels of mice were detected by ELISA. […] See Table 25 and FIG. 17 for details.

## C[C@]12C=CC(=O)C=C1CC[C@@H]1[C@@H]2C(=O)C[C@@]2(C)[C@H]1CC[C@]2(O)C(=O)CO [prednisone, reference compound]
16 weeks
  Area under the urine protein curve: 2360.38 ± 161.30 wk*mg/L
After 17 weeks of treatment
  Kidney HE pathological score of both kidneys, Activity index: 1.80 ± 0.36
  Kidney HE pathological score of both kidneys, Chronicity index: 4.90 ± 0.62
  Kidney HE pathological score of both kidneys, Tubulointerstitial lesions: 3.60 ± 0.45
  Kidney IHC (IgG) pathological score, bilateral kidneys: 7.90 ± 0.77
  Skin HE pathological score: 1.80 ± 0.36
  Total kidney weight: 0.3526 ± 0.01 g
  Total kidney weight/body weight %: 1.1050 ± 0.04%
End of the test
  IL-6 concentration in serum (ELISA): 19.91 ± 10.43 pg/mL
  Spleen weight: 0.0756 ± 0.01 g
  Spleen weight/body weight %: 0.2362 ± 0.03 %
  TNF-alpha concentration in serum (ELISA): 5.50 ± 1.13 pg/mL
  Total lymph node weight: 0.1123 ± 0.03 g
  Total lymph node weight/body weight %: 0.3445 ± 0.08 %
Week 0
  Concentration of serum anti-ds-DNA antibody: 3.26 ± 0.30 µg/mL
  Lymph node score: 0.0 ± 0.00
  Skin score (skin destruction): 0.0 ± 0.00
Week 4
  Concentration of serum anti-ds-DNA antibody: 183.55 ± 28.07 µg/mL
  Skin score (skin destruction): 0.0 ± 0.00
Week 6
  Lymph node score: 0.0 ± 0.00
Week 7
  Lymph node score: 0.2 ± 0.13
Week 8
  Concentration of serum anti-ds-DNA antibody: 363.75 ± 18.45 µg/mL
  Skin score (skin destruction): 0.3 ± 0.15
Week 9
  Lymph node score: 0.3 ± 0.15
Week 11
  Lymph node score: 0.0 ± 0.00
Week 12
  Concentration of serum anti-ds-DNA antibody: 619.78 ± 25.47 µg/mL
  Lymph node score: 0.0 ± 0.00
  Skin score (skin destruction): 0.3 ± 0.15
Week 14
  Skin score (skin destruction): 0.2 ± 0.13
Week 16
  Concentration of serum anti-ds-DNA antibody: 606.66 ± 26.65 µg/mL
  Skin score (skin destruction): 0.1 ± 0.10
Week 17
  Lymph node score: 0.0 ± 0.00
  Skin score (skin destruction): 0.1 ± 0.10
